Test system: 168 GPCRs
Assay: gpcrMAX panel 30 μM single-point β-arrestin screen (agonist and antagonist mode)
Assay type: cell-based
Details: antagonist mode
Procedure: Activity, or a “hit,” was defined as >30% in agonist mode, >35% in antagonist mode, or >50% in the orphan screen (agonist mode). Where these criteria were met, signal-to-noise (S/N) and coefficient of variation (CoV) were also calculated, defined as: […]
Agonist mode Antagonist modeS/N Compound mean/Baseline mean+(Baseline SD×3) EC80 mean/Compound-(Compound SD× 3)CoV Baseline mean/Compound mean-(Compound SD× 3) Compound mean/EC80 mean-(EC80 SD × 3)
Hits were verified to have S/N>1 and a CoV <1. Thresholds and subsequent validation were guided by Eurofins. Descriptive data (means ± S.E.M) was generated in Graphpad Prism (version 9.2.0, San Diego, CA).

SMILES: COC(=O)[C@@H](NC(=O)c1nn(Cc2ccc(F)cc2)c2ccccc12)C(C)C [AMB-FUBINACA]
- mean inhibition 30 μM, targets with >5-fold difference in S/N and CoV (n = 36): 97.00 ± 2.54%
- mean inhibition of targets inhibited above 35% threshold: 81.16%
- number of off-targets inhibited (>35%): inhibited the greatest number of targets
